According to the supplement of paper PMC11451515:

How the values were obtained:
Details in all cases: 48 h
NOMO1 [1] = assay: AUC of viability dose-response curve (% viability x log10 dose units); higher = less sensitive
Procedure, shortened: (§1)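 Leukemia cells adapted to each medium were seeded in 1536-well plates (500 or 1000 cells/well). They were dosed with library compounds in DMSO at 11 threefold doses, 47 μM to 0.79 nM, for 48 h at 37°C. CellTiter-Glo One luminescence was normalised per plate to DMSO and cell-free wells. Area under the curve was integrated by trapezoidal rule over log10 doses on a four-parameter log-logistic fit; curves exceeding full viability were scaled and curves failing quality control removed.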

P12-Ichikawa [2] = assay: as above
Procedure, shortened: as §1

SEM cells [3] = assay: cell viability relative to DMSO control; higher = less cytotoxic
Procedure, shortened: (§2)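 Library compounds in DMSO were pin-dosed into 1536-well plates (5 μl) holding NOMO1 or SEM (500 cells/well) or P12-Ichikawa (1000 cells/well) leukemia cells, across an 11-point threefold series of 47 μM to 0.79 nM. Each cell line had been adapted for at least four passages in each medium. CellTiter-Glo One luminescence was read after 48 h at 37°C. Viability is the per-plate percentage relative to DMSO wells, with cell-free wells as background.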

NOMO1 [4] = assay: as above
Procedure, shortened: as §2

P12-Ichikawa [5] = assay: as above
Procedure, shortened: as §2

SEM cells [6] = assay: AUC of viability dose-response curve (% viability x log10 dose units); higher = less sensitive
Procedure, shortened: as §1

Cc1nc2cnc3ccc(C#Cc4cccnc4)cc3c2n1-c1ccc(C(C)(C)C#N)cc1
AUC of viability dose-response curve
Details | HPLM + 10% dialyzed FBS | RPMI 5 mM glucose + 10% FBS | RPMI 5 mM glucose + 10% dialyzed FBS
NOMO1 [1] | 264 | 259 | 268
P12-Ichikawa [2] | 314 | 251 | 255

cell viability [%]
Details | NOMO1 [4] | P12-Ichikawa [5] | SEM cells [3]
HPLM + 10% dialyzed FBS, 0.000781 µM | 72.6 | 84.7 | 65.5
HPLM + 10% dialyzed FBS, 0.00234 µM | 84.9 | 89.5 | 72.3
HPLM + 10% dialyzed FBS, 0.00702 µM | 82.3 | 86.4 | 84.3
HPLM + 10% dialyzed FBS, 0.0211 µM | 83.2 | 87.4 | 86.5
HPLM + 10% dialyzed FBS, 0.0632 µM | 50.2 | 63.2 | 45.2
HPLM + 10% dialyzed FBS, 0.19 µM | 59.6 | 56 | 43.3
HPLM + 10% dialyzed FBS, 0.569 µM | 38.7 | 58.4 | 28.4
HPLM + 10% dialyzed FBS, 1.71 µM | 44.8 | 53.7 | 34
HPLM + 10% dialyzed FBS, 5.12 µM | 43.3 | 54.2 | 32.3
HPLM + 10% dialyzed FBS, 15.4 µM | 36.3 | 54.4 | 33.2
HPLM + 10% dialyzed FBS, 46.1 µM | 8.48 | 41 | 17
RPMI 5 mM glucose + 10% FBS, 0.000781 µM | 65 | 65.6 | 87.7
RPMI 5 mM glucose + 10% FBS, 0.00234 µM | 78.6 | 84.1 | 104
RPMI 5 mM glucose + 10% FBS, 0.00702 µM | 69.6 | 78.1 | 104
RPMI 5 mM glucose + 10% FBS, 0.0211 µM | 81.1 | 88.3 | 110
RPMI 5 mM glucose + 10% FBS, 0.0632 µM | 61.8 | 49.1 | 56.2
RPMI 5 mM glucose + 10% FBS, 0.19 µM | 62.7 | 43.5 | 60.2
RPMI 5 mM glucose + 10% FBS, 0.569 µM | 32 | 33.5 | 47.8
RPMI 5 mM glucose + 10% FBS, 1.71 µM | 47.1 | 43.7 | 34.2
RPMI 5 mM glucose + 10% FBS, 5.12 µM | 44.1 | 36.5 | 31
RPMI 5 mM glucose + 10% FBS, 15.4 µM | 38.6 | 40.6 | 32.4
RPMI 5 mM glucose + 10% FBS, 46.1 µM | 7.85 | 19.9 | 16.2
RPMI 5 mM glucose + 10% dialyzed FBS, 0.000781 µM | 66.4 | 71.8 | 69.8
RPMI 5 mM glucose + 10% dialyzed FBS, 0.00234 µM | 81.6 | 80.4 | 82.4
RPMI 5 mM glucose + 10% dialyzed FBS, 0.00702 µM | 91.9 | 77 | 84.3
RPMI 5 mM glucose + 10% dialyzed FBS, 0.0211 µM | 84.9 | 89.2 | 78.4
RPMI 5 mM glucose + 10% dialyzed FBS, 0.0632 µM | 56.7 | 53.6 | 50.4
RPMI 5 mM glucose + 10% dialyzed FBS, 0.19 µM | 60.7 | 49.6 | 48.9
RPMI 5 mM glucose + 10% dialyzed FBS, 0.569 µM | 30.4 | 36.4 | 44.2
RPMI 5 mM glucose + 10% dialyzed FBS, 1.71 µM | 48.8 | 36.6 | 37.2
RPMI 5 mM glucose + 10% dialyzed FBS, 5.12 µM | 40.1 | 33.7 | 31.6
RPMI 5 mM glucose + 10% dialyzed FBS, 15.4 µM | 48.4 | 37.6 | 32.7
RPMI 5 mM glucose + 10% dialyzed FBS, 46.1 µM | 9.18 | 24.2 | 15.7

Cn1cnc2c(F)c(Nc3ccc(Br)cc3F)c(C(=O)NOCCO)cc21
SEM cells [6]
Details | AUC of viability dose-response curve
HPLM + 10% dialyzed FBS | 392
RPMI 5 mM glucose + 10% FBS | 382
RPMI 5 mM glucose + 10% dialyzed FBS | 363

cell viability [%]
Details | NOMO1 [4] | P12-Ichikawa [5] | SEM cells [3]
HPLM + 10% dialyzed FBS, 0.000781 µM | 91.4 | 88.4 | 95.3
HPLM + 10% dialyzed FBS, 0.00234 µM | 83.3 | 101 | 84.2
HPLM + 10% dialyzed FBS, 0.00702 µM | 95.9 | 96.6 | 93.4
HPLM + 10% dialyzed FBS, 0.0211 µM | 27.1 | 11.1 | 22
HPLM + 10% dialyzed FBS, 0.0632 µM | 62.4 | 102 | 105
HPLM + 10% dialyzed FBS, 0.19 µM | 56.4 | 91.9 | 89.5
HPLM + 10% dialyzed FBS, 0.569 µM | 57.7 | 91 | 80
HPLM + 10% dialyzed FBS, 1.71 µM | 41.4 | 85.7 | 85.4
HPLM + 10% dialyzed FBS, 5.12 µM | 34.3 | 87.2 | 87.9
HPLM + 10% dialyzed FBS, 15.4 µM | 40 | 86.3 | 87.7
HPLM + 10% dialyzed FBS, 46.1 µM | 35.3 | 81.2 | 74.3
RPMI 5 mM glucose + 10% FBS, 0.000781 µM | 83.3 | 84.5 | 85.3
RPMI 5 mM glucose + 10% FBS, 0.00234 µM | 80.2 | 92.6 | 86.1
RPMI 5 mM glucose + 10% FBS, 0.00702 µM | 82.4 | 96.7 | 96.9
RPMI 5 mM glucose + 10% FBS, 0.0211 µM | 16.4 | 13.6 | 16
RPMI 5 mM glucose + 10% FBS, 0.0632 µM | 75.5 | 92.3 | 94.1
RPMI 5 mM glucose + 10% FBS, 0.19 µM | 66.2 | 82.7 | 108
RPMI 5 mM glucose + 10% FBS, 0.569 µM | 50.2 | 80.1 | 89.2
RPMI 5 mM glucose + 10% FBS, 1.71 µM | 42.6 | 78.2 | 85.9
RPMI 5 mM glucose + 10% FBS, 5.12 µM | 37.5 | 75.5 | 87.1
RPMI 5 mM glucose + 10% FBS, 15.4 µM | 31.2 | 74.2 | 70.9
RPMI 5 mM glucose + 10% FBS, 46.1 µM | 36.5 | 73.1 | 61.6
RPMI 5 mM glucose + 10% dialyzed FBS, 0.000781 µM | 77.1 | 91 | 88.1
RPMI 5 mM glucose + 10% dialyzed FBS, 0.00234 µM | 90.2 | 98 | 85.5
RPMI 5 mM glucose + 10% dialyzed FBS, 0.00702 µM | 98.7 | 101 | 107
RPMI 5 mM glucose + 10% dialyzed FBS, 0.0211 µM | 37.9 | 26.2 | 19.6
RPMI 5 mM glucose + 10% dialyzed FBS, 0.0632 µM | 75.3 | 97 | 87.5
RPMI 5 mM glucose + 10% dialyzed FBS, 0.19 µM | 49.6 | 93.5 | 91.5
RPMI 5 mM glucose + 10% dialyzed FBS, 0.569 µM | 45.4 | 83.8 | 83.1
RPMI 5 mM glucose + 10% dialyzed FBS, 1.71 µM | 40.5 | 89.1 | 70.6
RPMI 5 mM glucose + 10% dialyzed FBS, 5.12 µM | 39.6 | 91.8 | 76.2
RPMI 5 mM glucose + 10% dialyzed FBS, 15.4 µM | 34.5 | 86.6 | 66
RPMI 5 mM glucose + 10% dialyzed FBS, 46.1 µM | 34.6 | 81.4 | 52.8

C[C@H](CCC(=O)O)[C@H]1CC[C@H]2[C@@H]3[C@@H](O)C[C@@H]4C[C@H](O)CC[C@]4(C)[C@H]3CC[C@]12C
AUC of viability dose-response curve
Details | NOMO1 [1] | P12-Ichikawa [2] | SEM cells [6]
HPLM + 10% dialyzed FBS | 401 | 445 | 441
RPMI 5 mM glucose + 10% FBS | 414 | 461 | 462
RPMI 5 mM glucose + 10% dialyzed FBS | 398 | 435 | 449

OC[C@H]1O[C@@H](O[C@@H]2O\C=C(/[C@H]3C\C=C(CO)/[C@@H]23)C(O)=O)[C@H](O)[C@@H](O)[C@@H]1O
AUC of viability dose-response curve
Details | NOMO1 [1] | P12-Ichikawa [2] | SEM cells [6]
HPLM + 10% dialyzed FBS | 453 | 449 | 452
RPMI 5 mM glucose + 10% FBS | 449 | 468 | 475
RPMI 5 mM glucose + 10% dialyzed FBS | 455 | 418 | 462

C/C=C/C/C=C/CCC(=O)[C@H]1O[C@H]1C(N)=O
AUC of viability dose-response curve
Details | NOMO1 [1] | P12-Ichikawa [2] | SEM cells [6]
HPLM + 10% dialyzed FBS | 457 | 470 | 466
RPMI 5 mM glucose + 10% FBS | 458 | 473 | 464
RPMI 5 mM glucose + 10% dialyzed FBS | 476 | 469 | 464

cell viability [%], SEM cells [3]
Details | HPLM + 10% dialyzed FBS | RPMI 5 mM glucose + 10% FBS
0.000781 µM | 105 | 106
0.00234 µM | 107 | 117
0.00702 µM | 118 | 132
0.0211 µM | 123 | 110
0.0632 µM | 117 | 121
0.19 µM | 126 | 120
0.569 µM | 109 | 132
1.71 µM | 124 | 111
5.12 µM | 113 | 128
15.4 µM | 112 | 118
46.1 µM | 71.5 | 55.3
